Data reported in US8063101B2, “Carotenoid analogs and derivatives for the prevention of platelet aggregation” (Cardax Pharmaceuticals, Inc., priority 2007, dated 2011).
Where two headings read alike, the source gives them in different places.

How the values were obtained:
[1] = system: platelets; experiment: Platelet-derived peroxynitrite release after IP3 stimulation; format: cell-based; conditions: IP3 1.0 μM; for effect on platelet ONOO— release: compound alone at 1.0 μM, FIG. 12
Excerpt: Values are reported as mean±S.D. (N=5). *p<0.001 and †p<0.05 versus control; §p<0.001 versus aspirin treatment (ANOVA Student-Newman-Keuls multiple comparisons test; overall ANOVA: p<0.0001; F=52.475). […] Values are reported as mean±S.D. (N=5). *p<0.001 versus control and †p<0.001 versus aspirin alone (ANOVA Student-Newman-Keuls multiple comparisons test; overall ANOVA: p<0.0001; F=21.905). Abbreviations: Astax=Astaxanthin. […] Values are reported as mean±S.D. (N=5). *p<0.05 and **p<0.001 versus control; †p<0.05 and ‡p<0.001 versus simvastatin alone (ANOVA Student-Newman-Keuls multiple comparisons test; overall ANOVA: p<0.0001; F=13.716). Abbreviations: Astax=Astaxanthin; Simva=Simvastatin.

[2] = system: platelets; experiment: Platelet nitric oxide/peroxynitrite release ratio after IP3 stimulation; format: cell-based; conditions: IP3 1.0 μM
Excerpt: Values are reported as mean±S.D. (N=5). *p<0.05 and **p<0.001 versus control; †p<0.01 and ‡p<0.001 versus aspirin alone (ANOVA Student-Newman-Keuls multiple comparisons test; overall ANOVA: p<0.0001; F=129.98). Abbreviations: Astax=Astaxanthin. […] Values are reported as mean±S.D. (N=5). *p<0.05 and **p<0.001 versus control; †p<0.001 versus simvastatin alone (ANOVA Student-Newman-Keuls multiple comparisons test; overall ANOVA: p<0.0001; F=84.477). Abbreviations: Astax=Astaxanthin; Simva=Simvastatin. […] Values are reported as mean±S.D. (N=5). *p<0.05 and †p<0.001 versus control; §p<0.001 versus astaxanthin treatment (ANOVA Student-Newman-Keuls multiple comparisons test; overall ANOVA: p<0.0001; F=40.020).

[3] = system: vascular platelets; experiment: Platelet-derived nitric oxide (NO) release after IP3 stimulation, NO nanosensor; format: cell-based, Wistar-Kyoto (WKY) rats
Description: Wistar-Kyoto (WKY) rats were anaesthetized and blood was collected directly from the heart using a 10 mL syringe that contained 3.8% sodium citrate (9:1, v v^−1). […] The platelet rich plasma (PRP) was then removed by aspiration. […] The number of platelets was counted and adjusted to 3.5×10^8 per mL with Tyrode-HEPES buffer. The platelets were incubated in an aggregometer with a NO nanosensor (working electrode) placed in the platelet suspension. […] All measurements of NO release were conducted in Hank's balanced salt solution (HBSS) at 37° C. The sensor operated with a three-electrode system: nanosensor (working electrode), saturated calomel electrode (reference electrode), and platinum wire (counter electrode, 0.5 mm diameter). The three electrodes were connected to a potentiostat/galvanostat PAR273. The baseline was stabilized after ˜20 s. With a nanoinjector, the test compounds were injected onto the surface of the cells following solubilization in buffer. In experiments with multiple compounds, the compounds were injected simultaneously. […] Data were acquired with the use of custom software. Amperograms (current vs. time curves) were recorded with a Guniry FAS1 Femtostat (Warminster, Pa.). The nanosensor for NO was calibrated using saturated solution (concentration 1.82 mM verified with the coulometric method). […] The data were presented as mean±S.D. for each of the triplicate measurements. The data (calculation and plotting) were transferred to Microcal Origin Software (OriginLab Corp., Northampton, Mass.). […] The NO concentration was calculated using current responses obtained from standard NO solution (prepared from […] stock solution, saturated aqueous NO solution).

[4] = system: human umbilical vein endothelial cells (HUVEC); experiment: Calcium ionophore (CaI)-stimulated total nitric oxide release from HUVEC; format: cell-based; conditions: 3S,3′S-AST 5.0 μM, clopidogrel 1.0 μM, alone or in combination; FIG. 5
Description: (§1) Human umbilical vein endothelial cells (HUVECs) were isolated into primary cultures from white female donors by Clonetics (San Diego, Calif.), essentially as described (Mason et al. 2005). All donors were reported to be healthy and none had pregnancy or prenatal complications. All measurements were recorded in vitro using a sensitive porphyrinic probe, also as previously described. HUVEC cells were grown in Ham's F12K medium with 2 mM L-glutamine adjusted to contain 1.5 g/L sodium bicarbonate and supplemented with 0.1 mg/mL heparin and 0.03-0.05 mg/mL endothelial cell growth supplement (ECGS) plus 10% fetal bovine serum. The HUVEC cells were kept in an atmosphere of elevated CO2 concentration (5%).
All measurements of NO release were conducted in Hank's balanced salt solution (HBSS) at 37° C. The sensor operated with a three-electrode system: nanosensor (working electrode), saturated calomel electrode (reference electrode), and platinum wire (counter electrode, 0.5 mm diameter). The three electrodes were connected to a potentiostat/galvanostat PAR273. […] The current (amps) proportional to the NO concentration was measured with the sensor, which operated in amperometric mode at a constant potential of 0.63 V. Data were acquired with the use of custom software. Amperograms (current vs. time curves) were recorded with a Guniry FAS1 Femtostat (Warminster, Pa.).

[5] = system: human umbilical vein endothelial cells (HUVEC); experiment: Calcium ionophore (CaI)-stimulated total peroxynitrite release from HUVEC; format: cell-based; conditions: 3S,3′S-AST 5.0 μM, clopidogrel 1.0 μM, alone or in combination; FIG. 6
Description: as §1

[6] = system: human umbilical vein endothelial cells (HUVEC); experiment: CaI-stimulated NO/OONO- release ratio from HUVEC; format: cell-based; conditions: 3S,3′S-AST 5.0 μM, clopidogrel 1.0 μM, alone or in combination; FIG. 7
Description: as §1

[7] = parameters: species or system rats; conditions: in vivo, po, 500 mg/kg
Description: In one experiment, astaxanthin; all-trans 3S,3'S-astaxanthin diester disuccinate disodium salt (hereinafter “ADS”); and all-trans 3S,3'S-astaxanthin diester […] tetrahydrochloride salt (hereinafter “ADL”) were administered orally to separate rats as a lipid suspension. A single dose that included 500 mg/kg of the carotenoid/carotenoid derivative was administered to each rat. (See FIG. 20, PK Study #CXPK07201). Plasma from each of the rats was collected 4 hours after ingestion and 8 hours after ingestion and all samples were analyzed by high performance liquid chromatography (“HPLC”). HPLC analysis was used to detect the presence of free underivatized carotenoid (e.g., in this example, astaxanthin) in the plasma. HPLC chromatograms were collected for each plasma sample taken.

[8] = rat, in vivo
Description: In a another experiment, all-trans 3S,3′S-astaxanthin diester diglycinate dihydrochloride salt (hereinafter “ADG”); all-trans 3S,3′S-astaxanthin diester disarcosinate dihydrochloride salt (hereinafter “ADSa”); and ADL were administered orally to separate rats as a aqueous suspension containing 0.5% carboxymethylcellulose. A single dose that included 40 mg/kg of the carotenoid derivative was administered to each rat. (See FIG. 20, PK Study #CXPK07202). For each carotenoid derivative given to the rats in this example, the amount of all astaxanthin isomers, the amount of trans astaxanthin isomers, and the amount of cis astaxanthin isomers in the plasma was determined at predefined time intervals for 3 days (72 hours).
In another experiment, ADG; ADSa; and ADL were administered to separate rats intravenously as an aqueous solution. A single dose that included 5 mg/kg of the carotenoid derivative was administered to each rat. (See FIG. 20, PK Study #CXPK07202). For each carotenoid derivative given to the rats in this example, the amount of all astaxanthin isomers, the amount of trans astaxanthin isomers, and the amount of cis astaxanthin isomers in the plasma was determined at predefined time intervals for 3 days (72 hours).

[9] = Dog PK of astaxanthin derivatives (CXPK07402, 07404, 07405, 07406); conditions: dog, in vivo, po, 20 mg/kg
Description: In another experiment, ADL was administered to non-naïve beagle dogs orally (as an aqueous suspension containing 0.5% carboxymethylcellulose) and intravenously as an aqueous solution. Oral doses that included 10 mg/kg of the carotenoid derivative, 100 mg/kg of the carotenoid derivative, and 500 mg/kg of the carotenoid derivative were administered to each dog. The intravenous dosage was 5 mg/kg. (See FIG. 20, PK Study #CXPK07402). For each carotenoid derivative given to the dogs in this example, the amount of all astaxanthin isomers, the amount of trans astaxanthin isomers, and the amount of cis astaxanthin isomers in the plasma was determined at predefined time intervals for 3 days (72 hours).
In another experiment, ADL was administered to naïve beagle dogs orally (as an aqueous suspension containing 0.5% carboxymethylcellulose) twice a day for six days. Each oral dose included 75 mg/kg of the carotenoid derivative. (See FIG. 20, PK Study #CXPK07404). For each carotenoid derivative given to the dogs in this example, the amount of all astaxanthin isomers, the amount of trans astaxanthin isomers, and the amount of cis astaxanthin isomers in the plasma was determined at predefined time intervals for 6 days.
In another experiment, all-trans 3S,3′ S-astaxanthin diester di-beta-alanine dihydrochloride salt (hereinafter “ADA”); ADG; ADL; ADSa; and ADS were administered orally to separate non-naïve dogs as a aqueous suspension containing 0.5% carboxymethylcellulose. A single dose that included 20 mg/kg of the carotenoid derivative was administered to each dog. (See FIG. 20, PK Study #CXPK07405). For each carotenoid derivative given to the dogs in this example, the amount of all astaxanthin isomers was determined at predefined time intervals for 3 days (72 hours).
In another experiment, ADG or ADSa was administered to non-naïve beagle dogs orally (as an aqueous suspension containing 0.5% carboxymethylcellulose). Oral doses included either 50 mg/kg of the carotenoid derivative or 100 mg/kg of the carotenoid derivative. (See FIG. 20, PK Study #CXPK07406). For each carotenoid derivative given to the dogs in this example, the amount of all astaxanthin isomers, the amount of trans astaxanthin isomers, and the amount of cis astaxanthin isomers in the plasma was determined at predefined time intervals for 3 days (72 hours).

[10] = Monkey PK oral and intravenous (CXPK07502); format: in vivo; conditions: monkeys; oral 10, 300, 500 mg/kg and intravenous 5 mg/kg
[11] = astaxanthin combined with aspirin 1.0 μM, IP3 1.0 μM, FIG. 14

free astaxanthin in rat plasma [7]	absorption and metabolism to astaxanthin in plasma ([8]; iv, 5 mg/kg)	absorption and metabolism to astaxanthin in plasma ([8]; po, 40 mg/kg)	absorption and metabolism to astaxanthin in plasma [9]	absorption and metabolism to astaxanthin in plasma [10]	SMILES	effect on platelet ONOO— release [1]	effect on NO/ONOO— ratio ([2]; aspirin separately, 1.0 μM)	sustained production of NO with time (amperogram) ([3]; IP3-stimulated, 3S,3′S-AST 5.0 μM alone or with clopidogrel 1.0 μM, FIG. 4) [s]	mean increase in capacity to generate bioavailable NO vs. controls ([3]; IP3 stimulation, homochiral astaxanthin 5.0 μM alone)	increase in platelet NO generation/release vs. mean control levels ([3]; IP3 stimulation, homochiral astaxanthin 5 μM, clopidogrel 1 μM, each as monotherapy) [%]	total NO release from vascular platelets ([3]; IP3 stimulation, homochiral astaxanthin 5.0 μM, clopidogrel 1.0 μM, controls 6.6±0.3, mean±S.D.)	increase in NO release over untreated samples [3, 11] [fold]	potentiation of the NO release observed by aspirin alone [3, 11] [%]	effect of astaxanthin on simvastatin's platelet-derived NO release ([3]; increasing astaxanthin with simvastatin 1.0 μM, IP3 1.0 μM)	effect of astaxanthin on aspirin-induced ONOO— release ([1]; increasing astaxanthin with aspirin 1.0 μM, FIG. 13)	NOS coupling efficiency (ratio of NO/ONOO—), increase over control levels as well as aspirin alone ([2]; astaxanthin combined with aspirin 1.0 μM)	effect on CaI-stimulated total nitric oxide release from HUVEC [4]	effect on CaI-stimulated total peroxynitrite (OONO−) release from HUVEC [5]	effect on CaI-stimulated NO/OONO− release ratio from HUVEC [6]
–	–	–	–	–	CC(=O)Oc1ccccc1C(=O)O [aspirin, reference compound]	increased	failed to produce a favorable effect	–	–	–	–	–	–	–	–	–	–	–	–
no significant amount	–	–	–	–	CC1=C(/C=C/C(C)=C/C=C/C(C)=C/C=C/C=C(C)/C=C/C=C(C)/C=C/C2=C(C)C(=O)[C@@H](O)CC2(C)C)C(C)(C)C[C@H](O)C1=O [homochiral astaxanthin, astaxanthin]	decreased	–	13	two-fold	~100	12.9±0.3 molecules NO×10^6/platelet	3	80	enhanced the effect of simvastatin on platelet-derived NO release in a dose-dependent fashion	reverse the effect of aspirin on ONOO— release in a dose-dependent manner	approximately three-fold	Statistically significant increases	Statistically significant decreases	Statistically significant increases
–	absorbed by the rats and metabolized	absorbed by the rats and metabolized	absorbed by the dogs and metabolized	absorbed by the monkeys and metabolized	CNCC(=O)O[C@H]1CC(C)(C)C(/C=C/C(C)=C/C=C/C(C)=C/C=C/C=C(C)/C=C/C=C(C)/C=C/C2=C(C)C(=O)[C@@H](OC(=O)CNC)CC2(C)C)=C(C)C1=O.Cl.Cl (relative stereo) [ADSa, all-trans 3S,3′S-astaxanthin diester disarcosinate dihydrochloride salt]	–	–	–	–	–	–	–	–	–	–	–	–	–	–
